The record followed here is patent publication US10463651B2, “3-(1H-pyrrolo[3,2-C]pyridin-2-YL)-1H-indazoles and therapeutic uses thereof” (Samumed, LLC, priority 2015, dated 2019).

Common to all, as to type: cell-based
The subject of one assay is SW480 colon cancer cells. In words: Cell viability assay (CellTiter-Blue). The conditions noted are these: Homo sapiens; for EC50: 96 h, SW480 cell viability, four days, CellTiter-Blue; for inhibition at 10 µM: SW480, 96 h, read-out: percent inhibition at 10 μM. As for the experimental part: Representative compounds were screened using the following assay procedure to assess the effect on cell viability as described below.
Approximately 2×10^3 SW480 colon cancer cells were seeded into each well and allowed to incubate in the presence or absence of compound for four days at 37° C./5% CO2. Eight replicates of DMSO-treated cells served as controls and cells treated with compound were performed in duplicate.
After incubation, 20 μL of CellTiter-Blue (Promega) was added to each well allowed to incubate for approximately 3 hours. This reagent was a buffered solution which contains resazurin, metabolically active cells were able to reduce rezarurin (blue) into resorufin (pink) which was highly fluorescent. This measured fluorescence was used as a readout for cell viability.

The test system of assay [1] is primary human fibroblasts derived from IPF patients (LL29 cells) treated with TGF-β1. In words: Inhibition of the fibrotic process (αSMA staining) in TGF-β1-treated fibroblasts. Particulars: Fibroblast, 96 h; for EC50: % αSMA-positive LL29 cells, TGF-β1 20 ng/mL, 4 days; for inhibition at 10 µM: read-out: percent inhibition at 10 μM. As for the experimental part: Representative compounds were screened using primary human fibroblasts (derived from IPF patients) treated with TGF-β1 to determine their ability to inhibit the fibrotic process.
LL29 cells are plated at 1,500 cells/well in 80 μL/well F12 medium supplemented with 1% Fetal Bovine Serum. […] Wells treated with TGF-P1 and containing DMSO were used as controls. […] Following incubation for 4 days, SYTOX green nucleic acid stain (Life Technologies [Thermo Fisher Scientific]) was added to the wells at a final concentration of 1 μM and incubated at room temperature for 30 min.

A further assay concerns IL-6 (THP-1 cells). In words: IL-6 inhibition in LPS-stimulated THP-1 cells (HTRF). The conditions noted are these: Homo sapiens; for EC50: IL6 by HTRF, THP-1 cells, 500 ng/mL LPS, 22 hours; for inhibition at 10 µM: THP-1, read-out: percent inhibition at 10 M. As for the experimental part: THP-1 cells were cultured in basal media with 1% FBS for 24 hours before the start of the assay. […] THP-1 cells were plated at 5000 cells/well in the 384-well plates and incubated at 37° C. for 2 h. 500 ng/mL of LPS was added after 2 hours and cells were incubated for another 22 hours at 37° C. Plates were spun in a centrifuge for 1 minute at […] and a mixture of anti-IL6 XL665, and anti-IL6 Cryptate diluted in reconstitution buffer (Cisbio Inc.) was added to each well. Following incubation for 3 hrs at room temperature, Homogeneous Time-Resolved Fluorescence (HTRF) was measured using the Envision (Perkin Elmer) at 665 nm and […]. The ratio of fluorescence at 665 nm to 620 nm was used as a readout for IL6 quantification. All samples were processed in duplicate. Readings were normalized to DMSO treated cells and normalized activities were utilized for EC50 calculations using the dose-response log (inhibitor) vs. response-variable slope (four parameters) nonlinear regression feature available in GraphPad Prism 5.0 (or Dotmatics).

The subject of assay [2] is Wnt activity (Sp5-Luc reporter, SW480 colon carcinoma cells). In words: Screening assay for Wnt activity (Sp5-Luc reporter gene assay in SW480 cells). Particulars: Homo sapiens; for EC50: Sp5-Luc reporter, SW480 cells, incubated overnight; for inhibition at 10 µM: SW480, read-out: percent inhibition at 10 μM. An excerpt: The screening assay for Wnt activity is described as follows. Reporter cell lines can be generated by stably transducing cancer cell lines (e.g., colon cancer) or primary cells (e.g., IEC-6 intestinal cells) with a lentiviral construct that includes a Wnt-responsive promoter driving expression of the firefly luciferase gene.
SW480 colon carcinoma cells were transduced with a lentiviral vector expressing luciferase with a human Sp5 promoter consisting of a sequence of eight TCF/LEF binding sites. SW480 cells stably expressing the Sp5-Luc reporter gene and a hygromycin resistance gene were selected by treatment with 150 μg/mL of hygromycin for 7 days. These stably transduced SW480 cells were expanded in cell culture and used for all further screening activities. […] For Sp5-Luc reporter gene assays, the cells were plated at 4,000 cells/well in 384-well plates with medium containing 1% fetal bovine serum and incubated overnight at 37° C. and 5% CO2. Following incubation, 20 μl of BrightGlo luminescence reagent (Promega) was added to each well of the 384-well assay plates. The plates were placed on an orbital shaker for 2 min and then luminescence was quantified using the Envision (Perkin Elmer) plate reader. Readings were normalized to DMSO only treated cells, and normalized activities were utilized for EC50 calculations using the dose-response log (inhibitor) vs. response-variable slope (four parameters) nonlinear regression feature available in GraphPad Prism 5.0 (or Dotmatics).

In the case of `CN(C)CCOc1cncc(-c2ccc3[nH]nc(-c4cc5c(-c6ccc(F)cc6)nccc5[nH]4)c3c2)c1` [Compound 531, 2-((5-(3-(4-(4-fluorophenyl)-1H-pyrrolo[3,2-c]pyridin-2-yl)-1H-indazol-5-yl)pyridin-3-yl)oxy)-N,N-dimethylethan-1-amine], the EC50 – broadly, the concentration giving half of the maximal effect – with SW480 colon cancer cells was 1.19 µM; in assay [1] it was 0.908 µM; in the assay with IL-6 (THP-1 cells), 7.05 µM; in assay [2], 3.38 µM.

With `CS(=O)(=O)NCc1cc(F)cc(-c2nccc3[nH]c(-c4n[nH]c5ccc(-c6ccccn6)cc45)cc23)c1` [Compound 504, N-(3-Fluoro-5-(2-(5-(pyridin-2-yl)-1H-indazol-3-yl)-1H-pyrrolo[3,2-c]pyridin-4-yl)benzyl)methanesulfonamide], the EC50 is 5.54 µM in the assay with SW480 colon cancer cells, 2.13 µM in assay [1], > 10 µM with IL-6 (THP-1 cells) and 3.61 µM in assay [2]. Further, the inhibition (commonly the drop in the measured response relative to a control, in per cent) at 10 µM with IL-6 (THP-1 cells) is 40.6%.

Take `Fc1ccc(-c2nccc3[nH]c(-c4n[nH]c5ccc(-c6cn[nH]c6)cc45)cc23)cc1` [Compound 523, 3-(4-(4-Fluorophenyl)-1H-pyrrolo[3,2-c]pyridin-2-yl)-5-(1H-pyrazol-4-yl)-1H-indazole]: the EC50 in the assay with SW480 colon cancer cells came to 0.837 µM; in assay [1], 0.161 µM; in the assay with IL-6 (THP-1 cells) it was 0.092 µM; in assay [2], 0.111 µM.

`CC(C)Nc1cncc(-c2ccc3[nH]nc(-c4cc5c(-c6ccc(F)cc6)nccc5[nH]4)c3c2)c1` [Compound 40, 5-(3-(4-(4-Fluorophenyl)-1H-pyrrolo[3,2-c]pyridin-2-yl)-1H-indazol-5-yl)-N-isopropylpyridin-3-amine]: the EC50 is 0.779 µM in the assay with SW480 colon cancer cells, 0.549 µM in assay [1], 0.545 µM with IL-6 (THP-1 cells) and 0.539 µM in assay [2].

Regarding `CC(C)CC(=O)Nc1cncc(-c2ccc3[nH]nc(-c4cc5c(-c6ccc(F)cc6)nccc5[nH]4)c3c2)c1` [Compound 30, N-(5-(3-(4-(4-Fluorophenyl)-1H-pyrrolo[3,2-c]pyridin-2-yl)-1H-indazol-5-yl)pyridin-3-yl)-3-methylbutanamide], the EC50 in the assay with SW480 colon cancer cells came out at 0.439 µM; in assay [1] it was 0.329 µM; in the assay with IL-6 (THP-1 cells), 1.3 µM; in assay [2], 0.442 µM.

As to `Cc1ccncc1-c1ccc2[nH]nc(-c3cc4c(-c5ccc(F)cc5)nccc4[nH]3)c2c1` [Compound 33, 3-(4-(4-Fluorophenyl)-1H-pyrrolo[3,2-c]pyridin-2-yl)-5-(4-methylpyridin-3-yl)-1H-indazole], the EC50 with SW480 colon cancer cells is 3.85 µM; in assay [1], 2 µM; in the assay on IL-6 (THP-1 cells), > 10 µM; in assay [2], 3.72 µM. Besides, the inhibition at 10 µM in the assay on IL-6 (THP-1 cells) turned out to be 36.8%.

As for `NC1CN(c2cncc(-c3ccc4[nH]nc(-c5cc6c(N7CCCCC7)nccc6[nH]5)c4c3)n2)C1` [Compound 606, 1-(6-(3-(4-(Piperidin-1-yl)-1H-pyrrolo[3,2-c]pyridin-2-yl)-1H-indazol-5-yl)pyrazin-2-yl)azetidin-3-amine], the concentration for a half-maximal effect (EC50) turned out to be 2.79 µM in the assay with SW480 colon cancer cells, 0.236 µM in assay [1], 0.066 µM in the assay with IL-6 (THP-1 cells) and 1.76 µM in assay [2].

As for `c1cncc(-c2ccc3[nH]nc(-c4cc5c(-c6ccsc6)nccc5[nH]4)c3c2)c1` [Compound 284, 5-(Pyridin-3-yl)-3-(4-(thiophen-3-yl)-1H-pyrrolo[3,2-c]pyridin-2-yl)-1H-indazole], the EC50 with SW480 colon cancer cells is 0.661 µM; in assay [1], 0.648 µM; in the assay on IL-6 (THP-1 cells), 1.1 µM; in assay [2], 1.25 µM.

In the case of `Nc1cncc(-c2ccc3[nH]nc(-c4cc5c(N6CCCCC6)nccc5[nH]4)c3c2)n1` [Compound 992, 6-(3-(4-(Piperidin-1-yl)-1H-pyrrolo[3,2-c]pyridin-2-yl)-1H-indazol-5-yl) pyrazin-2-amine], the EC50 with SW480 colon cancer cells was 0.546 µM; in assay [1], > 10 µM; in the assay on IL-6 (THP-1 cells), 0.093 µM; in assay [2], 0.093 µM. In addition, the inhibition at 10 µM in assay [1] was found to be 0%.

`COc1cncc(-c2ccc3[nH]nc(-c4cc5c(-c6ccc(C)s6)nccc5[nH]4)c3c2)c1` [Compound 740, 5-(5-Methoxypyridin-3-yl)-3-(4-(5-methylthiophen-2-yl)-1H-pyrrolo[3,2-c]pyridin-2-yl)-1H-indazole]: the EC50 in the assay on SW480 colon cancer cells is 1.51 µM; in assay [1], 0.445 µM; in the assay on IL-6 (THP-1 cells), 5.41 µM; in assay [2], 1.15 µM.

With `CC(C)(C)CC(=O)Nc1cncc(-c2ccc3[nH]nc(-c4cc5c(-c6ccc(F)cc6)nccc5[nH]4)c3c2)c1` [Compound 44, N-(5-(3-(4-(4-Fluorophenyl)-1H-pyrrolo[3,2-c]pyridin-2-yl)-1H-indazol-5-yl)pyridin-3-yl)-3,3-dimethylbutanamide], the EC50 (with SW480 colon cancer cells; in assay [1]; in the assay on IL-6 (THP-1 cells); in assay [2]) was > 10 µM throughout. Moreover, the inhibition at 10 µM in the assay on SW480 colon cancer cells was 7.7%; in assay [1], 0%; in the assay on IL-6 (THP-1 cells) it was 35%; in assay [2] it was 19.5%.

Consider `Fc1ccccc1-c1nccc2[nH]c(-c3n[nH]c4ccc(-c5ccccn5)cc34)cc12` [Compound 84, 3-(4-(2-Fluorophenyl)-1H-pyrrolo[3,2-c]pyridin-2-yl)-5-(pyridin-2-yl)-1H-indazole], for which the EC50 in the assay on SW480 colon cancer cells is 1.02 µM; in assay [1], 0.659 µM; in the assay on IL-6 (THP-1 cells), 1.96 µM; in assay [2], 1.22 µM.

In the case of `O=C(Nc1cncc(-c2ccc3[nH]nc(-c4cc5c(-c6ccc(F)cc6)nccc5[nH]4)c3c2)c1)c1ccccc1` [Compound 39, N-(5-(3-(4-(4-Fluorophenyl)-1H-pyrrolo[3,2-c]pyridin-2-yl)-1H-indazol-5-yl)pyridin-3-yl)benzamide], the EC50 in the assay on SW480 colon cancer cells is 0.54 µM; in assay [1], 0.501 µM; with IL-6 (THP-1 cells) it was 3.46 µM; in assay [2] it was 1.61 µM.

With `CS(=O)(=O)NCc1cc(F)cc(-c2nccc3[nH]c(-c4n[nH]c5ccc(-c6cncc(NC(=O)C7CC7)c6)cc45)cc23)c1` [Compound 496, N-(5-(3-(4-(3-Fluoro-5-(methylsulfonamidomethyl)phenyl)-1H-pyrrolo[3,2-c]pyridin-2-yl)-1H-indazol-5-yl)pyridin-3-yl)cyclopropanecarboxamide], the EC50 with SW480 colon cancer cells came out at 0.93 µM; in assay [1], 5.12 µM; in the assay on IL-6 (THP-1 cells), 0.137 µM; in assay [2], 0.37 µM.

Consider `CN1CCN(c2nccc3[nH]c(-c4n[nH]c5ccc(-c6cncnc6)cc45)cc23)CC1` [Compound 251, 3-(4-(4-Methylpiperazin-1-yl)-1H-pyrrolo[3,2-c]pyridin-2-yl)-5-(pyrimidin-5-yl)-1H-indazole], for which the EC50 was > 10 µM in the assay with SW480 colon cancer cells, 9.7 µM in assay [1], 8.26 µM in the assay on IL-6 (THP-1 cells) and > 10 µM in assay [2]. Moreover, the inhibition at 10 µM in the assay on SW480 colon cancer cells stood at 20%; in assay [2], 20.2%.
